Assay results: ChEMBL document CHEMBL4619788, “Chemically Induced Degradation of FAK-ALK for Application in Cancer Therapeutics” (ACS Med Chem Lett, 2020)

How the values were obtained:
[1] = biological target: T1, Protein cereblon/Focal adhesion kinase 1 (Homo sapiens) (UniProt Q05397+Q96SW2); assay: Protac activity at CRBN/FAK in human PA-TU-8988T cells assessed as induction of FAK degradation at 10 nM incubated for 4 hrs by immunoblot assay relative to control; format: cell-based
[2] = biological target: T1, Protein cereblon/Focal adhesion kinase 1 (Homo sapiens); assay: Protac activity at CRBN/FAK in human PA-TU-8988T cells assessed as induction of FAK degradation at 100 nM incubated for 4 hrs by immunoblot assay relative to control; format: cell-based

T1 sequence (Q05397 2-1052 limits assumed): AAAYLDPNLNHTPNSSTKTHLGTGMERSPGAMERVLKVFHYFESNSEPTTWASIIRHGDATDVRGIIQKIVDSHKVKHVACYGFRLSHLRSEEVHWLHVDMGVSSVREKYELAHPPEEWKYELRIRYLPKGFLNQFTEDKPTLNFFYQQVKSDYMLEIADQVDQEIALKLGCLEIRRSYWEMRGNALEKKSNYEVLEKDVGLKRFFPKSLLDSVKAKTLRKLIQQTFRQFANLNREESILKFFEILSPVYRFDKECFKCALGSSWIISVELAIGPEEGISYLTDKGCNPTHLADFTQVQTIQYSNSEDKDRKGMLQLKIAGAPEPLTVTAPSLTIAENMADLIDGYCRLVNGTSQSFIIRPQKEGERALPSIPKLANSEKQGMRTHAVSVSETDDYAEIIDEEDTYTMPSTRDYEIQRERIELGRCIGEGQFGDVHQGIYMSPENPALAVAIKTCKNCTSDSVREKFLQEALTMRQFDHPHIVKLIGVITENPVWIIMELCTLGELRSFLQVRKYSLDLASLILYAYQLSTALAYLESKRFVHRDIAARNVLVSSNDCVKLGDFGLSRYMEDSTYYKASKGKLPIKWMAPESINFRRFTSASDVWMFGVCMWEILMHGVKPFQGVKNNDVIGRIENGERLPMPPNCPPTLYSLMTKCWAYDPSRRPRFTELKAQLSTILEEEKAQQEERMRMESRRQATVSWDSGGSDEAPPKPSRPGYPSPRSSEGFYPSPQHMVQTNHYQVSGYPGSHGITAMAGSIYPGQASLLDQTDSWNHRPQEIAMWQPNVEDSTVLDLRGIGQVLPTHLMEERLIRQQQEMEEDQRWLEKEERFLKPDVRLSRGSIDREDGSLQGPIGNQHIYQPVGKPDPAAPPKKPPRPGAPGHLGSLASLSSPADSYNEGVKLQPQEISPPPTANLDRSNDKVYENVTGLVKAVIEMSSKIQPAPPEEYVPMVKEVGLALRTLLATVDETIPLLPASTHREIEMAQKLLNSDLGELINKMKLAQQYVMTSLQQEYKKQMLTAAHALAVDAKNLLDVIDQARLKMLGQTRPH
T1 sequence (Q96SW2 whole entry partner): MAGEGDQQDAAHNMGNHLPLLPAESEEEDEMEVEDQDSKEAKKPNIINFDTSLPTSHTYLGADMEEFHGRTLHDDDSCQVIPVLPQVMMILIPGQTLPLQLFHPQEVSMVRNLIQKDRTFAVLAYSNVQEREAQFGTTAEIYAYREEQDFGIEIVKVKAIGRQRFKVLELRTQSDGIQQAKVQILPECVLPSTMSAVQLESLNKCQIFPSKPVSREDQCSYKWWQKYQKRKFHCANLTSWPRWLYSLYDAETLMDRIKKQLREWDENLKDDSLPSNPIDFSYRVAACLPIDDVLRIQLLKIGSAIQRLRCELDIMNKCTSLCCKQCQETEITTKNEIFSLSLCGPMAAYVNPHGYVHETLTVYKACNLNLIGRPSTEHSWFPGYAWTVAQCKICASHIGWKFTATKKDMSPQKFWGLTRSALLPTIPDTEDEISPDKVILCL

| Compound | Activity [1] [%] | Activity [2] [%] |
| --- | --- | --- |
| CNC(=O)c1ccccc1Nc1cc(Nc2ccc(N3CCN(CCCCCCNC(=O)COc4cccc5c4C(=O)N(C4CCC(=O)NC4=O)C5=O)CC3)cc2OC)ncc1C(F)(F)F (configuration not stated) | 85 to 100 | 85 to 100 |
| CNC(=O)c1ccccc1Nc1cc(Nc2cc(C)c(C3CCN(CCCCCCNC(=O)COc4cccc5c4C(=O)N(C4CCC(=O)NC4=O)C5=O)CC3)cc2OC(C)C)ncc1C(F)(F)F (configuration not stated) | 85 to 100 | 85 to 100 |
| CNC(=O)c1ccccc1Nc1cc(Nc2ccc(N3CCN(CCCCCCCCNc4cccc5c4C(=O)N(C4CCC(=O)NC4=O)C5=O)CC3)cc2OC)ncc1C(F)(F)F (configuration not stated) | 85 to 100 | 85 to 100 |
| CNC(=O)c1ccccc1Nc1cc(Nc2ccc(N3CCN(CCCCCCCCNC(=O)CNc4cccc5c4C(=O)N(C4CCC(=O)NC4=O)C5=O)CC3)cc2OC)ncc1C(F)(F)F (configuration not stated) | 85 to 100 | 85 to 100 |
| CNC(=O)c1ccccc1Nc1cc(Nc2ccc(N3CCN(CCOCCOCCNC(=O)CNc4cccc5c4C(=O)N(C4CCC(=O)NC4=O)C5=O)CC3)cc2OC)ncc1C(F)(F)F (configuration not stated) | 70 to 84 | 85 to 100 |
| CS(=O)(=O)c1cccc(CNc2nc(Nc3ccc(C(=O)NCCCCCCCCNC(=O)COc4cccc5c4C(=O)N(C4CCC(=O)NC4=O)C5=O)cc3)ncc2C(F)(F)F)c1 (configuration not stated) | 25 to 49 | 85 to 100 |
